These results are taken from ChEMBL document CHEMBL3045546, “Synthesis and antimicrobial screening of 4-thiazolidinone and 2-azetidinone derivatives of piperazine” (2013).

Structures are written as SMILES. In brackets after ≈: the same amount, converted by molar mass.

Format in all cases: functional
In one experiment the test system is Bacillus cereus. Description: Antimicrobial activity against Bacillus cereus ATCC 11778 assessed as growth inhibition by broth dilution method.
A further experiment relates to Trichoderma viride. Kind of experiment: Antimicrobial activity against Hypocrea rufa ATCC 52440 assessed as growth inhibition by broth dilution method. (In general: Dilution methods test growth across graded concentrations, often in twofold steps.)
The subject of the next experiment is Escherichia coli. Description: Antimicrobial activity against Escherichia coli ATCC 25922 assessed as growth inhibition by broth dilution method.
A further experiment relates to Bacillus subtilis. Kind of experiment: Antimicrobial activity against Bacillus subtilis ATCC 6633 assessed as growth inhibition by broth dilution method.
The next experiment concerns Microsporum canis. Kind of experiment: Antimicrobial activity against Arthroderma otae ATCC 11622 assessed as growth inhibition by broth dilution method.
In the next experiment the test system is Bacillus pumilus. Description: Antimicrobial activity against Bacillus pumilus ATCC 14884 assessed as growth inhibition by broth dilution method.
The next experiment relates to Aspergillus niger. Kind of experiment: Antimicrobial activity against Aspergillus niger ATCC 9142 assessed as growth inhibition by broth dilution method.
The next experiment has as its system Proteus mirabilis. Description: Antimicrobial activity against Proteus mirabilis ATCC 49565 assessed as growth inhibition by broth dilution method.
The test system of another experiment is Proteus vulgaris. Description: Antimicrobial activity against Proteus vulgaris ATCC 13315 assessed as growth inhibition by broth dilution method.
Experiment [1] deals with Staphylococcus epidermidis. Kind of experiment: Antimicrobial activity against Staphylococcus epidermidis ATCC 12228 assessed as growth inhibition by broth dilution method.
The subject of another experiment is Salmonella typhi. Description: Antimicrobial activity against Salmonella enterica subsp. enterica serovar Typhi ATCC 19430 assessed as growth inhibition by broth dilution method.
The next experiment deals with Aspergillus awamori. Kind of experiment: Antimicrobial activity against Aspergillus awamori ATCC 22342 assessed as growth inhibition by broth dilution method.
For another experiment, the system named is Fusarium solani. Kind of experiment: Antimicrobial activity against Fusarium solani ATCC 38136 assessed as growth inhibition by broth dilution method.
The subject of a further experiment is Candida albicans. Description: Antimicrobial activity against Candida albicans ATCC 10231 assessed as growth inhibition by broth dilution method.
Another experiment relates to Staphylococcus aureus. Description: Antimicrobial activity against Staphylococcus aureus ATCC 25923 assessed as growth inhibition by broth dilution method.
A further experiment concerns Pseudomonas aeruginosa. Kind of experiment: Antimicrobial activity against Pseudomonas aeruginosa ATCC 10145 assessed as growth inhibition by broth dilution method.
For another experiment, the system named is Rhizoctonia solani. Kind of experiment: Antimicrobial activity against Rhizoctonia solani ATCC 76131 assessed as growth inhibition by broth dilution method.
Another experiment relates to Micrococcus luteus. Description: Antimicrobial activity against Micrococcus luteus ATCC 4698 assessed as growth inhibition by broth dilution method.
Another experiment relates to Trichophyton longifusum. Description: Antimicrobial activity against Trichophyton longifusum ATCC 22397 assessed as growth inhibition by broth dilution method.
For another experiment, the system named is Aspergillus flavus. Kind of experiment: Antimicrobial activity against Aspergillus flavus ATCC 15517 assessed as growth inhibition by broth dilution method.
The next experiment deals with Klebsiella pneumoniae. Description: Antimicrobial activity against Klebsiella pneumoniae ATCC 13883 assessed as growth inhibition by broth dilution method.
A further experiment deals with Aspergillus fumigatus. Description: Antimicrobial activity against Aspergillus fumigatus assessed as growth inhibition by broth dilution method.
The subject of a further experiment is Alternaria alternata. Description: Antimicrobial activity against Alternaria alternata ATCC 66868 assessed as growth inhibition by broth dilution method.
In a further experiment the test system is Staphylococcus hominis. Description: Antimicrobial activity against Staphylococcus hominis ATCC 27844 assessed as growth inhibition by broth dilution method.

As to `O=C1CSC(c2ccco2)N1CCN1CCNCC1` (stereo unspecified), the MIC in the experiment on Bacillus cereus came out at 150 mg/L (≈ 533 µM); in the experiment on Trichoderma viride it was 150 mg/L (≈ 533 µM); in the experiment on Escherichia coli, 75 mg/L (≈ 267 µM); in the experiment on Bacillus subtilis it was 75 mg/L (≈ 267 µM); with Microsporum canis it was 300 mg/L (≈ 1070 µM); in the experiment on Bacillus pumilus, 150 mg/L (≈ 533 µM). Further, the MIC in the experiment on Aspergillus niger is 300 mg/L (≈ 1070 µM); with Proteus mirabilis, 150 mg/L (≈ 533 µM); in the experiment on Proteus vulgaris, 150 mg/L (≈ 533 µM); in experiment [1], 300 mg/L (≈ 1070 µM); in the experiment on Salmonella typhi, 75 mg/L (≈ 267 µM); with Aspergillus awamori, 150 mg/L (≈ 533 µM). For the same compound, the MIC in the experiment on Fusarium solani amounted to 300 mg/L (≈ 1070 µM); with Candida albicans, 300 mg/L (≈ 1070 µM); in the experiment with Staphylococcus aureus, 150 mg/L (≈ 533 µM); in the experiment with Pseudomonas aeruginosa, 75 mg/L (≈ 267 µM); in the experiment with Rhizoctonia solani, 150 mg/L (≈ 533 µM); with Micrococcus luteus, 75 mg/L (≈ 267 µM). Further, the MIC came out at 300 mg/L (≈ 1070 µM) with Trichophyton longifusum; 150 mg/L (≈ 533 µM) with Aspergillus flavus; 150 mg/L (≈ 533 µM) in the experiment on Klebsiella pneumoniae; 150 mg/L (≈ 533 µM) in the experiment with Aspergillus fumigatus; 300 mg/L (≈ 1070 µM) in the experiment on Alternaria alternata; 75 mg/L (≈ 267 µM) in the experiment on Staphylococcus hominis.
For the compound `COc1ccc(C2C(Cl)C(=O)N2CCN2CCN(C(=O)CCl)CC2)cc1O` (stereo unspecified), the MIC with Bacillus cereus stood at 9.37 mg/L (≈ 22.5 µM); in the experiment on Trichoderma viride, 18.8 mg/L (≈ 45 µM); in the experiment on Escherichia coli, 9.37 mg/L (≈ 22.5 µM); with Bacillus subtilis, 4.68 mg/L (≈ 11.2 µM); in the experiment on Microsporum canis, 18.8 mg/L (≈ 45 µM); in the experiment with Bacillus pumilus, 9.37 mg/L (≈ 22.5 µM). In addition, the minimal inhibitory concentration (MIC) in the experiment on Aspergillus niger is 18.8 mg/L (≈ 45 µM); in the experiment with Proteus mirabilis, 9.37 mg/L (≈ 22.5 µM); in the experiment with Proteus vulgaris it was 9.37 mg/L (≈ 22.5 µM); in [1], 9.37 mg/L (≈ 22.5 µM); in the experiment with Salmonella typhi, 4.68 mg/L (≈ 11.2 µM); with Aspergillus awamori, 18.8 mg/L (≈ 45 µM). The MIC in the experiment on Fusarium solani was determined as 18.8 mg/L (≈ 45 µM); in the experiment with Candida albicans it was 18.8 mg/L (≈ 45 µM); with Staphylococcus aureus it was 9.37 mg/L (≈ 22.5 µM); in the experiment with Pseudomonas aeruginosa, 9.37 mg/L (≈ 22.5 µM); with Rhizoctonia solani, 18.8 mg/L (≈ 45 µM); in the experiment on Micrococcus luteus it was 4.68 mg/L (≈ 11.2 µM). Moreover, the MIC came out at 9.73 mg/L (≈ 23.4 µM) in the experiment with Trichophyton longifusum; 18.8 mg/L (≈ 45 µM) with Aspergillus flavus; 9.37 mg/L (≈ 22.5 µM) with Klebsiella pneumoniae; 18.8 mg/L (≈ 45 µM) with Aspergillus fumigatus; 9.73 mg/L (≈ 23.4 µM) with Alternaria alternata; 9.37 mg/L (≈ 22.5 µM) in the experiment with Staphylococcus hominis.
Take `COc1ccc(C2SCC(=O)N2CCN2CCNCC2)cc1O` (stereo unspecified): the MIC turned out to be 4.68 mg/L (≈ 13.9 µM) with Bacillus cereus; 18.8 mg/L (≈ 55.6 µM) in the experiment with Trichoderma viride; 9.37 mg/L (≈ 27.8 µM) with Escherichia coli; 9.37 mg/L (≈ 27.8 µM) in the experiment with Bacillus subtilis; 9.37 mg/L (≈ 27.8 µM) with Microsporum canis; 9.37 mg/L (≈ 27.8 µM) with Bacillus pumilus. For the same compound, the MIC in the experiment with Aspergillus niger amounted to 18.8 mg/L (≈ 55.6 µM); in the experiment on Proteus mirabilis, 9.37 mg/L (≈ 27.8 µM); with Proteus vulgaris, 9.37 mg/L (≈ 27.8 µM); in experiment [1], 9.37 mg/L (≈ 27.8 µM); with Salmonella typhi it was 9.37 mg/L (≈ 27.8 µM); in the experiment on Aspergillus awamori it was 9.37 mg/L (≈ 27.8 µM). Further, the MIC in the experiment with Fusarium solani was found to be 18.8 mg/L (≈ 55.6 µM); with Candida albicans, 9.37 mg/L (≈ 27.8 µM); with Staphylococcus aureus, 9.37 mg/L (≈ 27.8 µM); with Pseudomonas aeruginosa, 9.37 mg/L (≈ 27.8 µM); in the experiment with Rhizoctonia solani it was 9.37 mg/L (≈ 27.8 µM); in the experiment on Micrococcus luteus, 9.37 mg/L (≈ 27.8 µM). Besides, the MIC worked out at 18.8 mg/L (≈ 55.6 µM) with Trichophyton longifusum; 9.37 mg/L (≈ 27.8 µM) with Aspergillus flavus; 4.68 mg/L (≈ 13.9 µM) in the experiment on Klebsiella pneumoniae; 9.37 mg/L (≈ 27.8 µM) with Aspergillus fumigatus; 18.8 mg/L (≈ 55.6 µM) with Alternaria alternata; 9.37 mg/L (≈ 27.8 µM) in the experiment with Staphylococcus hominis.
In the case of `O=C1CSC(c2ccccc2O)N1CCN1CCNCC1` (stereo unspecified), the MIC came out at 75 mg/L (≈ 244 µM) in the experiment with Bacillus cereus; 300 mg/L (≈ 976 µM) in the experiment on Trichoderma viride; 75 mg/L (≈ 244 µM) in the experiment on Escherichia coli; 75 mg/L (≈ 244 µM) with Bacillus subtilis; 300 mg/L (≈ 976 µM) in the experiment on Microsporum canis; 150 mg/L (≈ 488 µM) in the experiment on Bacillus pumilus. In addition, the MIC with Aspergillus niger stood at 300 mg/L (≈ 976 µM); with Proteus mirabilis, 150 mg/L (≈ 488 µM); with Proteus vulgaris it was 150 mg/L (≈ 488 µM); in experiment [1], 75 mg/L (≈ 244 µM); in the experiment on Salmonella typhi, 75 mg/L (≈ 244 µM); in the experiment on Aspergillus awamori, 300 mg/L (≈ 976 µM). For the same compound, the MIC in the experiment on Fusarium solani was found to be 300 mg/L (≈ 976 µM); in the experiment with Candida albicans, 150 mg/L (≈ 488 µM); with Staphylococcus aureus, 150 mg/L (≈ 488 µM); in the experiment with Pseudomonas aeruginosa, 75 mg/L (≈ 244 µM); with Rhizoctonia solani, 150 mg/L (≈ 488 µM); in the experiment with Micrococcus luteus, 150 mg/L (≈ 488 µM). The MIC in the experiment with Trichophyton longifusum came out at 300 mg/L (≈ 976 µM); with Aspergillus flavus, 150 mg/L (≈ 488 µM); in the experiment with Klebsiella pneumoniae it was 75 mg/L (≈ 244 µM); in the experiment with Aspergillus fumigatus it was 150 mg/L (≈ 488 µM); with Alternaria alternata, 150 mg/L (≈ 488 µM); with Staphylococcus hominis, 75 mg/L (≈ 244 µM).

For orientation: MIC means the lowest concentration that inhibits growth of the organism.
